Earlier results in US20130344087A1, “COMBINATIONS OF ANTI-S1P ANTIBODIES AND SHPINGOLIPID PATHWAY INHIBITORS” (priority 2010, published 2013).

What was measured:
[1] = biological target: T1, ceramide synthase 2 (Homo sapiens, UniProt Q96G23); details: human pulmonary artery endothelial cells
T1 construct: endogenous in cells; host or cells: human pulmonary artery endothelial cells
T1 sequence (Q96G23 1-380): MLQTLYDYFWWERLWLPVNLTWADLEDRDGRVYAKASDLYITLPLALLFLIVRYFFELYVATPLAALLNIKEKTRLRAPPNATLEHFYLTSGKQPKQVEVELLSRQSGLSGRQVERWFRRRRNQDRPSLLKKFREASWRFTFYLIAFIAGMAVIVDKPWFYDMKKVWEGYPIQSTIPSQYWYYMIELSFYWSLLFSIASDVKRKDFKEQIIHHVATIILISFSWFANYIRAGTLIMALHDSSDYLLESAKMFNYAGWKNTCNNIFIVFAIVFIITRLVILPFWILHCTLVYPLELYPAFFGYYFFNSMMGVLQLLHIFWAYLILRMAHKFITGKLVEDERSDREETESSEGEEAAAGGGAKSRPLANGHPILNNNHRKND

[2] = system: AML xenograft tumors; details: in vivo
[3] = biological target: T2, SPHK 2 (Homo sapiens, UniProt Q9NRA0)
T2 sequence (Q9NRA0 1-654): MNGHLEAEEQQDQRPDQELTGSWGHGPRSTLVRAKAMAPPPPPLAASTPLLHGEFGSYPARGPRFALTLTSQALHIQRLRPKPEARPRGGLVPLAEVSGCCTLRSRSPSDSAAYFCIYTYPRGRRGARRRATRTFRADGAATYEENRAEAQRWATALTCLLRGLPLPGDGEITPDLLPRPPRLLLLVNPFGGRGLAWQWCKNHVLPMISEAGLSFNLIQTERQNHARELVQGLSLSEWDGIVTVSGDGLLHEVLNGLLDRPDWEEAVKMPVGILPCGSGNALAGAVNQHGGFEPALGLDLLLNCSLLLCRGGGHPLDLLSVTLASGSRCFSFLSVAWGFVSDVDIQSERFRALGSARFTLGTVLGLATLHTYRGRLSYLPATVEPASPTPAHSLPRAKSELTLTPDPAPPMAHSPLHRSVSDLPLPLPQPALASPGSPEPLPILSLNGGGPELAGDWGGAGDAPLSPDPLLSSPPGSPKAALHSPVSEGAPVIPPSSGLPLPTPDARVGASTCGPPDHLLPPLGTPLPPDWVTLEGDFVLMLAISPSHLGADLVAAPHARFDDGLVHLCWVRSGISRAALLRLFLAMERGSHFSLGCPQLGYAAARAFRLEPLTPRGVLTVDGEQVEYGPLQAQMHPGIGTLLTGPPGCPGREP

[4] = system: S1P and ceramide levels
[5] = system: human leukemia Jurkat cells
[6] = system: normal peripheral blood mononuclear leukocytes
[7] = system: human leukemia U937 cells
[8] = system: PKC
[9] = system: leukemic blasts isolated from patients with acute myelogenous leukemia; details: blasts from AML patients
[10] = biological target: ERK2 (Homo sapiens, UniProt P28482); details: at concentrations up to 60 μM
ERK2, sequence (P28482 whole entry, species assumed): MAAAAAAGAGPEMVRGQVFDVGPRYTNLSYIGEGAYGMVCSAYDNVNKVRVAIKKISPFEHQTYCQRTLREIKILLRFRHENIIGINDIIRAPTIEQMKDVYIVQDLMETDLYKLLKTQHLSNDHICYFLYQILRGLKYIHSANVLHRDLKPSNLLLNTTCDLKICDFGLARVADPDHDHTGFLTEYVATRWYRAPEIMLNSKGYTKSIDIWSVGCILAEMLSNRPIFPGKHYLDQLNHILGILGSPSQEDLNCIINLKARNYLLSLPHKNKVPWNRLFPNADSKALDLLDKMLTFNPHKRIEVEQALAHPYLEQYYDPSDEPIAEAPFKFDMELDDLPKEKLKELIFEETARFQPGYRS

[11] = system: PI3-kinase; details: at concentrations up to 60 μM
[12] = biological target: PKCα (Homo sapiens, UniProt P17252); details: at concentrations up to 60 μM
[13] = system: human cancer cell lines (T-24, MCF-7, NCl/ADR, and MCF-7NP); details: range across cell lines, read-out: IC50, inhibition of proliferation
[14] = system: leukemia cells

## CCCCCCCCc1ccc(CCC(N)(CO)CO)cc1.Cl [FTY720, 2-amino-2[2-(4-octylphenyl)ethyl]propane-1,3-diol hydrochloride]
[1]
  cellular levels of dihydroceramides, ceramides, sphingosine, and S1P: decreased cellular levels
  inhibition of ceramide synthase 2: inhibit ceramide synthase 2
[1]; mediated by SPHK1 activity
  levels of dihydrosphingosine and dihydrosphingosine 1-phosphate (DHS1P): increased levels

## CCCCCc1ccc(/C=C/[C@H](O)[C@@H](CO)NC)cc1 [SK1-I, (2R,3S,4E)-N-methyl-5-(4′-pentylphenyl)-2-aminopent-4-ene-1,3-diol]
[2]
  growth of AML xenograft tumors: markedly reduces growth
[3]
  inhibition of SPHK 2: does not inhibit
[4]
  S1P levels: decreases S1P levels
  levels of proapoptotic precursor ceramide: increases levels
[5]
  growth and survival of Jurkat cells: decrease growth and survival
[6]
  effect on normal peripheral blood mononuclear leukocytes: sparing
[7]
  growth and survival of U937 cells: decrease growth and survival
[8]
  inhibition of PKC: does not inhibit
[9]
  induction of apoptosis in leukemic blasts: potently induces apoptosis

## Oc1ccc(Nc2nc(-c3ccc(Cl)cc3)cs2)cc1 [SPHK I2, 4-[[4-(4-chlorophenyl)-2-thiazolyl]amino]-phenol]
[10]
  inhibition of ERK2: no inhibition
[11]
  inhibition of PI3-kinase: no inhibition
[12]
  inhibition of PKCα: no inhibition
[13]
  IC50: 0.9 to 4.6 µM

## CCCCCCCCCCCCCCC[C@H](O)[C@@H](N)CO [safingol, L-threo-dihydrosphingosine]
[14]
  cytotoxicity to leukemia cells: cytotoxic
